Source: US20250223404A1, “SHAPED ARTICLE COMPRISING A POLY(ARYL ETHER SULFONE) (PAES) POLYMER AND METHOD OF MAKING USING MELT PROCESSING” (Solvay Specialty Polymers USA, LLC, priority 2022, published 2025)
Read-outs that look alike come from different tables or passages of the source.

Target: T1, human Estrogen receptor alpha (ERα) (Homo sapiens, UniProt P03372)
T1 construct: expressed in transfected cells; host or cells: GeneBLAzer ER-α-UAS-bla GripTite 293 cells (stably integrated)
T1 sequence (P03372 311-547 limits assumed): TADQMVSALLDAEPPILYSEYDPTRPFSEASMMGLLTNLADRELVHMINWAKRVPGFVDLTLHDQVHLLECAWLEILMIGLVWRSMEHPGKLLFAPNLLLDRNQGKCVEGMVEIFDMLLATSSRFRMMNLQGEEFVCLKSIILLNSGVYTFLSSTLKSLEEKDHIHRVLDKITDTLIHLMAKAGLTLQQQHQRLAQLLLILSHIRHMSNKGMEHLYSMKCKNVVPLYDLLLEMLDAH
Assay: GeneBLAzer Cell-Based Nuclear Receptor Assay (beta-lactamase reporter), ER-α-UAS-bla GripTite 293 cells
Settings: for estrogenic activity on ERα cells compared with BPA, BPS and BP: in words
Description: The response value “EC50” was measured by using the GeneBLAzer® Cell-Based Nuclear Receptor Assay technology which uses the GeneBLAzer®.
The monomers (see Table 7) were dissolved in 100% biological-grade DMSO at a concentration of 7 to 250000 nM (nanomolar). The ER-α-UAS-bla GripTite™ 293 cells were used to measure EC50. The higher the EC50 value is, the weaker the estrogenic agonist activity is for the monomer tested.
The GeneBLAzer® ER-α-UAS-bla GripTite™ cells contain a ligand-binding domain (LBD) of the human Estrogen receptor alpha (ERα) fused to a DNA-binding domain of GAL4 plasmid stably integrated in the GeneBLAzer® UAS-bla GripTite™ cell line. The GeneBLAzer® UAS-bla GripTite™ cells stably express a beta-lactamase reporter gene under the transcriptional control of an upstream activator sequence (UAS). When an estrogenic agonist binds to the LBD of the GAL4 (DBD)-ER α (LBD) fusion protein, the protein binds to the UAS, resulting in expression of beta-lactamase.

[1] = estrogen agonist activity on ERα cells, read-out: EC50 value
[2] = estrogen agonist activity, ER-α-UAS-bla GripTite 293 cells, monomers in DMSO, 7 to 250000 nM, read-out: EC50 (nM) response value to the estrogen receptor alpha

EC50 [2] [nM]	estrogenic activity on ERα cells compared with BPA, BPS and BP	SMILES	EC50 [1] [nM]
> 79100	much lower estrogenic activity	Oc1cc2ccccc2cc1O [2,3-NDO, 2,3 Napthalene diol]	≥ 30000
32000	much lower estrogenic activity	Oc1ccc2ccc(O)cc2c1 [2,7-NDO, 2,7 Napthalene diol]	
791		O=S(=O)(c1ccc(O)cc1)c1ccc(O)cc1 [BPS, 4,4′-dihydroxydiphenyl sulfone, reference compound]	

SMILES	EC50 [2] [nM]	estrogenic activity on ERα cells compared with BPA, BPS and BP	EC50 [1] [nM]
Oc1cccc2c(O)cccc12 [1,5-NDO, 1,5 Naphthalene diol]	> 79100	much lower estrogenic activity	≥ 30000
